molecular target: T1, PLU-1 (Homo sapiens, UniProt Q9UGL1); experiment: PLU-1 demethylase assay on H3K4Me3 peptide (RapidFire HT-MS); type: biochemical; conditions: not given
T1 construct: FLAG tagged full length recombinant JARID1A and PLU1 proteins were purified from Sf9 insect cells; FLAG; made in house; host or cells: Sf9 insect cells
Protocol: (§1) FLAG tagged full length recombinant JARID1A and PLU1 proteins were purified from Sf9 insect cells to near homogeneity. The demethylation reaction buffer contained 50 mM TrisCl pH 7.5, 0.01% Triton X-100, 0.005% BSA, 1 mM ascorbate (Cat# A4034, Sigma Aldrich), 1.7 μM α-ketoglutarate (# K2010, Sigma Aldrich) and 20 μM Fe2(NH4)2(SO4)2 (Cat# F1543, Sigma Aldrich). In a 25 μL demethylation reaction system, 20 nM recombinant JARID1A or PLU1 proteins and 4 μM H3K4me3 peptide (1-21 aa), which can be biotinylated or unlabelled, were incubated with compounds for 10 minutes, and then α-ketoglutarate and Fe2(NH4)2(SO4)2 were added to initiate the reaction. All of the reactions were incubated for 45 minutes at room temperature, and then 25 μl of 1 N HCl was added to quench the reactions. After termination, plates were sealed and frozen at −80° C. for analysis.
(§2) All the reactions were read by RapidFire™ HT-MS platform developed in BioCius Inc, and described in detail (Assay and Drug Development Technologies, 2004; 2(4): 373-381). Briefly, plates were thawed and immediately analyzed using RapidFire™ system coupled to a Sciex API4000 triple quadrapole mass spectrometer. The samples were delivered directly from the plate to a clean-up cartridge (BioCius column A) to remove nonvolatile assay components with 0.1% formic acid in a 3-sec wash cycle. The peptide substrate and demethylated product were coeluted to the mass spectrometer with 80% acetonitrile, 0.1% formic acid. Both the substrate and product signals were read at their +5 charge species, and the conversion from substrate to product assessed by [H3K4me2 Read]/[H3K4me2 Read+H3K4me3 Read].

T1 sequence (Q9UGL1 whole entry): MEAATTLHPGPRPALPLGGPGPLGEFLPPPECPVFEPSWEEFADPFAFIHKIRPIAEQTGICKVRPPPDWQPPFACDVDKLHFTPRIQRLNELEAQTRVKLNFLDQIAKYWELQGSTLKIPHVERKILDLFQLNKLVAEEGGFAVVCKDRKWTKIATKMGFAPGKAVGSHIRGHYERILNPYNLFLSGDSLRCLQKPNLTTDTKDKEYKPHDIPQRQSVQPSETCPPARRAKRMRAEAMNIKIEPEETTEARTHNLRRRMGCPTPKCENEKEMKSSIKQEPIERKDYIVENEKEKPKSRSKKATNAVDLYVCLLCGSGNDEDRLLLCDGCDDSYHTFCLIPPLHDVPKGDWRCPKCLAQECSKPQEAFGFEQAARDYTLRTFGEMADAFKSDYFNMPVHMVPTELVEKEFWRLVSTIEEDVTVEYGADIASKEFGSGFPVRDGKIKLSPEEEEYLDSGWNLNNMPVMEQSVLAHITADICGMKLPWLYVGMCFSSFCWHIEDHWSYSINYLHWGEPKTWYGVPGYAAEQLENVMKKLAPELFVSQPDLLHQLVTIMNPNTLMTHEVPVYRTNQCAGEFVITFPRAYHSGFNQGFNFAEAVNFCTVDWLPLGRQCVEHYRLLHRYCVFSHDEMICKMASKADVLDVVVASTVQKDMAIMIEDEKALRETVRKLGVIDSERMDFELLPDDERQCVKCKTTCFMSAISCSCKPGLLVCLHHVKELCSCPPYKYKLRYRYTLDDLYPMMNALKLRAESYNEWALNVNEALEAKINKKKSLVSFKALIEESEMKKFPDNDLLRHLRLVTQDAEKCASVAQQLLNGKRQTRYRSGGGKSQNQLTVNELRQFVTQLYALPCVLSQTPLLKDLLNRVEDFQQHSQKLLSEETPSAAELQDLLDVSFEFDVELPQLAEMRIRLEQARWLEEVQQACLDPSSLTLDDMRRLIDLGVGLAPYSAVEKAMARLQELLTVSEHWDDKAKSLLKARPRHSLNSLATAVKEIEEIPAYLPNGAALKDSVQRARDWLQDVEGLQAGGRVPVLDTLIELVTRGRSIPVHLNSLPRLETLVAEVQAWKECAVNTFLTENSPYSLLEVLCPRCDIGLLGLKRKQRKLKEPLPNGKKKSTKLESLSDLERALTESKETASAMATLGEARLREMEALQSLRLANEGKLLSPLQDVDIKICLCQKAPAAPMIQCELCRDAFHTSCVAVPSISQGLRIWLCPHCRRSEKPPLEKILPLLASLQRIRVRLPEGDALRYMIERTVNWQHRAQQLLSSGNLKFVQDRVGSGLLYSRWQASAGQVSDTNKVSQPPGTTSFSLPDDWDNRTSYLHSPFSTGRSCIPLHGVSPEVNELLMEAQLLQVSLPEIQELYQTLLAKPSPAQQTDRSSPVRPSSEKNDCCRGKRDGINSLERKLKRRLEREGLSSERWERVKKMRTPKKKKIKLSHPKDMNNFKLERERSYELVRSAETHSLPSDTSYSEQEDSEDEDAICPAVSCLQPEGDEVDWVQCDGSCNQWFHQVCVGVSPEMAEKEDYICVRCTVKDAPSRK

Row | IC50 [µM] | SMILES
1 | ≤ 1 | CCc1c(CO)[nH]c2c(C#N)cnn2c1=O [Compound I-21]
2 | ≤ 1 | CCc1c(COC)[nH]c2c(C#N)cnn2c1=O [Compound I-23]
3 | ≤ 1 | CCOC(=O)c1[nH]c2c(C#N)cnn2c(=O)c1CC [Compound I-25]
4 | 1 to 10 | CCc1c(C)n(C)c2c(C#N)cnn2c1=O [Compound I-29]
5 | 1 to 10 | CCc1c(C(=O)NC)[nH]c2c(C#N)cnn2c1=O [Compound I-49]

molecular target: T2, GASC1 (Homo sapiens, UniProt Q9H3R0); experiment: GASC1 demethylation assay on H3K9Me3 peptide (RapidFire HT-MS); type: biochemical; conditions: read-out: GASC1 Inhibition
T2 construct: 6×His tagged recombinant GASC1 (N 350aa) was purified from E. Coli BL21(DE3); 6xHis; made in house; host or cells: E. coli BL21(DE3)
T2 sequence (Q9H3R0 1-350 limits assumed): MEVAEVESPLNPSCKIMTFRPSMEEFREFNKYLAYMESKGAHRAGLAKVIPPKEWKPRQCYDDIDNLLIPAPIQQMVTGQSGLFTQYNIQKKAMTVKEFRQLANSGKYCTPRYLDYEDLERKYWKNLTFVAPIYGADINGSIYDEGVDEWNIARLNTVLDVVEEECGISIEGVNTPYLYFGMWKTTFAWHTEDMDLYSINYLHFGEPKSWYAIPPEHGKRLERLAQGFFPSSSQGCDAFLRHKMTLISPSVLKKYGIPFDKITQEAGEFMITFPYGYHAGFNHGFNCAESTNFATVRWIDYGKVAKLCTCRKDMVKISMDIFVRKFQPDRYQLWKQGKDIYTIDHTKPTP
Protocol: 6×His tagged recombinant GASC1 (N 350aa) was purified from E. Coli BL21(DE3) to near homogeneity. The demethylation reaction buffer contained 50 mM TrisCl pH 7.5, 0.01% Triton X-100, 5% glycerol, 1 mM ascorbate (Cat# A4034, Sigma Aldrich), 5 μM α-ketoglutarate (# K2010, Sigma Aldrich) and 20 μM Fe2(NH4)2(SO4)2 (Cat# F1543, Sigma Aldrich). In 25 μL demethylation reaction system, 400 nM recombinant GASC1 and 20 μM H3K9me3 peptide (1-21 aa) were incubated with compounds for 10 minutes, and then α-ketoglutarate and Fe2(NH4)2(SO4)2 were added to initiate the reaction. All of the reactions were incubated for 45 minutes at room temperature, and then 25 μl of 1 N HCl was added to quench the reactions. After termination, plates were sealed and frozen at −80° C. and shipped on dry ice to BioTrove Inc. (Woburn, Mass.) for analysis.
All the reactions were read by RapidFire™ HT-MS platform developed in BioTrove Inc, and the method has been described in detail previously (Assay and Drug Development Technologies, 2004; 2(4): 373-381). Briefly, at BioTrove, plates were thawed and immediately analyzed using RapidFire™ system coupled to a Sciex API4000 triple quadrapole mass spectrometer. The samples were delivered directly from the plate to a clean-up cartridge (BioTrove column A) to remove nonvolatile assay components with 0.1% formic acid in a 3-sec wash cycle. The peptide substrate and demethylated product were coeluted to the mass spectrometer with 80% acetonitrile, 0.1% formic acid. Both the substrate and product signals were read at their +5 charge species, and the conversion from substrate to product is assessed by [H3K9me2 Read]/[H3K9me2 Read+H3K9me3 Read].

Row | IC50 [µM] | SMILES
6 | ≥ 50 | CCOC(=O)Cc1c(C)[nH]c2c(C#N)c(C)nn2c1=O [Compound I-1]
7 | ≥ 50 | CCOC(=O)Cc1c(C)[nH]c2c(C#N)cnn2c1=O [Compound I-2]
8 | 1 to 10 | N#Cc1cnn2c(=O)c3c([nH]c12)CCC3 [Compound I-3]
9 | 1 to 10 | CCc1c(C)[nH]c2c(C#N)c(C)nn2c1=O [Compound I-5]
10 | ≥ 50 | Cc1[nH]c2c(C#N)cnn2c(=O)c1Cc1ccccc1 [Compound I-6]
11 | 10 to 50 | Cc1nn2c(=O)c3c([nH]c2c1C#N)CCCC3 [Compound I-12]
12 | ≥ 50 | CCc1nn2c(=O)c3c([nH]c2c1C#N)CCCC3 [Compound I-13]
13 | ≥ 50 | Cn1c2c(c(=O)n3ncc(C#N)c13)CCCC2 [Compound I-14]
14 | 1 to 10 | Cc1nn2c(=O)c(C(C)C)c(C)[nH]c2c1C#N [Compound I-15]
15 | 1 to 10 | CCCc1c(C)[nH]c2c(C#N)c(C)nn2c1=O [Compound I-16]
16 | ≤ 1 | CCCc1c(C)[nH]c2c(C#N)cnn2c1=O [Compound I-17]
17 | ≥ 50 | N#Cc1cnn2c(=O)c3c(n(Cc4ccccc4)c12)CCCC3 [Compound I-18]
18 | ≥ 50 | N#Cc1cnn2c(=O)c3c(n(-c4ccccc4)c12)CCCC3 [Compound I-19]
19 | 1 to 10 | Cc1c(C(C)C)c(=O)n2ncc(C#N)c2n1-c1ccccc1 [Compound I-20]
20 | ≤ 1 | CCc1c(CO)[nH]c2c(C#N)cnn2c1=O [Compound I-21]
21 | 1 to 10 | CCc1c(CO)[nH]c2c(C#N)c(C)nn2c1=O [Compound I-22]
22 | 1 to 10 | CCc1c(COC)[nH]c2c(C#N)cnn2c1=O [Compound I-23]
23 | 1 to 10 | CCc1c(COC)[nH]c2c(C#N)c(C)nn2c1=O [Compound I-24]
24 | ≤ 1 | CCOC(=O)c1[nH]c2c(C#N)cnn2c(=O)c1CC [Compound I-25]
25 | 1 to 10 | CCOC(=O)c1[nH]c2c(C#N)c(C)nn2c(=O)c1CC [Compound I-26]
26 | ≥ 50 | COCCOc1c2c(nc3c(C#N)cnn13)CCCC2 [Compound I-27]
27 | ≥ 50 | COCCc1c(C)[nH]c2c(C#N)cnn2c1=O [Compound I-28]
28 | ≥ 50 | CCc1c(C)n(C)c2c(C#N)cnn2c1=O [Compound I-29]
29 | 1 to 10 | CCCc1c(COC)[nH]c2c(C#N)cnn2c1=O [Compound I-31]

Row | IC50 [µM] | SMILES
30 | 1 to 10 | CCc1c(CCCOC)[nH]c2c(C#N)cnn2c1=O [Compound I-32]
31 | 1 to 10 | CCCc1c(CO)[nH]c2c(C#N)cnn2c1=O [Compound I-33]
32 | ≤ 1 | C=CCc1c(C)[nH]c2c(C#N)cnn2c1=O [Compound I-34]
33 | 1 to 10 | CCc1c(C(C)O)[nH]c2c(C#N)cnn2c1=O (centres unmarked) [Compound I-35]
34 | ≥ 50 | CCc1c(C)n(CCN(C)C)c2c(C#N)cnn2c1=O [Compound I-36]
35 | ≥ 50 | CCc1c2n(c3c(C#N)cnn3c1=O)CCC2 [Compound I-37]
36 | ≤ 1 | CCc1c(CCCO)[nH]c2c(C#N)cnn2c1=O [Compound I-38]
37 | 1 to 10 | Cc1[nH]c2c(C#N)cnn2c(=O)c1CC(C)C [Compound I-39]
38 | 1 to 10 | Cc1[nH]c2c(C#N)cnn2c(=O)c1CCO [Compound I-40]
39 | ≤ 1 | CCc1c(C(F)(F)F)[nH]c2c(C#N)cnn2c1=O [Compound I-41]
40 | ≤ 1 | CCc1c(-c2ccoc2)[nH]c2c(C#N)cnn2c1=O [Compound I-42]
41 | 1 to 10 | CCCc1c(C(=O)OCC)[nH]c2c(C#N)cnn2c1=O [Compound I-43]
42 | ≤ 1 | CCc1c(Cc2ccccc2)[nH]c2c(C#N)cnn2c1=O [Compound I-44]
43 | ≤ 1 | CCOCc1[nH]c2c(C#N)cnn2c(=O)c1CC [Compound I-45]
44 | ≤ 1 | C#CCc1c(C)[nH]c2c(C#N)cnn2c1=O [Compound I-46]
45 | ≤ 1 | CCc1c(-c2ccccc2)[nH]c2c(C#N)cnn2c1=O [Compound I-47]
46 | 1 to 10 | CCNC(=O)c1[nH]c2c(C#N)cnn2c(=O)c1CC [Compound I-48]
47 | 1 to 10 | CCc1c(C(=O)NC)[nH]c2c(C#N)cnn2c1=O [Compound I-49]
48 | 1 to 10 | C=CCc1c(CO)[nH]c2c(C#N)cnn2c1=O [Compound I-50]
49 | ≤ 1 | C=CCc1c(COC)[nH]c2c(C#N)cnn2c1=O [Compound I-51]
50 | 1 to 10 | CCc1c(CNC)[nH]c2c(C#N)cnn2c1=O [Compound I-52]
51 | 1 to 10 | CCc1c(C(=O)OCc2ccccc2)[nH]c2c(C#N)cnn2c1=O [Compound I-53]
52 | 1 to 10 | COc1c2c(nc3c(C#N)cnn13)CCCC2 [Compound I-54]
53 | 1 to 10 | N#Cc1cnn2c(=O)c3ccccc3[nH]c12 [Compound I-55]

molecular target: T3, KDM5A (Homo sapiens, UniProt P29375); experiment: KDM5 enzyme assay, KDM5A HTRF (Example 463); type: biochemical; conditions: not given
T3 construct: Full length KDM5A enzyme was expressed and purified inhouse; made in house
T3 sequence (P29375 whole entry): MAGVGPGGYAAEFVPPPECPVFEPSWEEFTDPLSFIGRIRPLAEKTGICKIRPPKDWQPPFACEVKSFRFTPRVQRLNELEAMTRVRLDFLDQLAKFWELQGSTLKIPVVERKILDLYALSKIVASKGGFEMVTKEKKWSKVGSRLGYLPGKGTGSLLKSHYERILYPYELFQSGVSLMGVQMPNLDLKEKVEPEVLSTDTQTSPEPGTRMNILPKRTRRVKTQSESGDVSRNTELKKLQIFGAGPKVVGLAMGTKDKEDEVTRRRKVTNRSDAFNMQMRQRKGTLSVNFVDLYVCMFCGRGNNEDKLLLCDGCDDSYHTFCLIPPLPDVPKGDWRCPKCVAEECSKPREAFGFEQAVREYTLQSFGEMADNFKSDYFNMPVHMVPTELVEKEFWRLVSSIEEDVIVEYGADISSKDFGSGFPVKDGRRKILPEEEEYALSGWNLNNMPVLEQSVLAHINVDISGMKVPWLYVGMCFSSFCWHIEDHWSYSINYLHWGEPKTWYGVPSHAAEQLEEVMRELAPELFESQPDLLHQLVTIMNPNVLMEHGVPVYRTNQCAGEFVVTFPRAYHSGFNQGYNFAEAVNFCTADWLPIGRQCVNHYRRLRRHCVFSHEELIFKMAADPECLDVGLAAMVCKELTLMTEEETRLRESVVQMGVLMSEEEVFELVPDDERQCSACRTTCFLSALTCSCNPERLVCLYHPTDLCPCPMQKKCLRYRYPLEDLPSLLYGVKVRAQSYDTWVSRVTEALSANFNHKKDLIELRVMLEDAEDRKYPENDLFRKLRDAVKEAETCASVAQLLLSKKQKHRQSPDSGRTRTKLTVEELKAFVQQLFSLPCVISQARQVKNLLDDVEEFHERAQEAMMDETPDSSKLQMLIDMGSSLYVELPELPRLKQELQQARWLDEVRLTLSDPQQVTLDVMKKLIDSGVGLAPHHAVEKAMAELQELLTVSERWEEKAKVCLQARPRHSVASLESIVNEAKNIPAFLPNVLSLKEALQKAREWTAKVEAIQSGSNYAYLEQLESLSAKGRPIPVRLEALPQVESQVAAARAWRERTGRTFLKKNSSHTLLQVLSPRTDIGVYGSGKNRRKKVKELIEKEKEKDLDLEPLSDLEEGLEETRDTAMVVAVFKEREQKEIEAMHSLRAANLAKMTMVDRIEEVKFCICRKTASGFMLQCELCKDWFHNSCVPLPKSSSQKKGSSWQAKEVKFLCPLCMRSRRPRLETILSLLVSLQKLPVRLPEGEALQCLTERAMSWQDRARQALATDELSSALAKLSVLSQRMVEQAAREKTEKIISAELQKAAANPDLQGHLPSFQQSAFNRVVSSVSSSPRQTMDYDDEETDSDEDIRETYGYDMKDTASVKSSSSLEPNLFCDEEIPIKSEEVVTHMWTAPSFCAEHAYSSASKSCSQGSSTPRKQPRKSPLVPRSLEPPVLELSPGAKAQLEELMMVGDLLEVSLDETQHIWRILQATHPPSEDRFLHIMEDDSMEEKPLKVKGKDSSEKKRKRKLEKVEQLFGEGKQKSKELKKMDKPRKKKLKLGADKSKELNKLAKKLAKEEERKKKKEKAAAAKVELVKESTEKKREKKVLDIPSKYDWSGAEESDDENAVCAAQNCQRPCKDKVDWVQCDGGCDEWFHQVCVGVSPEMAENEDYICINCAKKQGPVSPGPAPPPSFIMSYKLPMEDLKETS

Row | SMILES | IC50 [µM]
54 | CC(C)c1c(-c2ccc(Cl)cc2)[nH]c2c(C#N)cnn2c1=O [Example 341] | 0.021

same assay, conditions: compounds of Examples 1-432; read-out: Example 463 Assay KDM5A HTRF IC50

Row | IC50 [µM] | SMILES
55 | 0.009 | CC(C)c1c(-c2cnn(Cc3ccc(F)c(F)c3)c2)[nH]c2c(C#N)cnn2c1=O [Example 342]
56 | 0.036 | Cc1ccc(-c2[nH]c3c(C#N)cnn3c(=O)c2C(C)C)cc1C(F)(F)F [Example 343]
57 | 0.093 | CC(C)c1c(-c2ccc(C(=O)N3CCCC3)cc2)[nH]c2c(C#N)cnn2c1=O [Example 344]

molecular target: T4, JARID1A (Homo sapiens, UniProt P29375); experiment: JARID1A demethylase assay on H3K4Me3 peptide (RapidFire HT-MS); type: biochemical; conditions: not given
T4 construct: FLAG tagged full length recombinant JARID1A and PLU1 proteins were purified from Sf9 insect cells; FLAG; made in house; host or cells: Sf9 insect cells
T4 sequence (P29375 whole entry): as above
Protocol: as §1, §2

Row | IC50 [µM] | SMILES
58 | ≤ 1 | CCc1c(CO)[nH]c2c(C#N)cnn2c1=O [Compound I-21]
59 | ≤ 1 | CCc1c(COC)[nH]c2c(C#N)cnn2c1=O [Compound I-23]
60 | ≤ 1 | CCOC(=O)c1[nH]c2c(C#N)cnn2c(=O)c1CC [Compound I-25]
61 | 1 to 10 | CCc1c(C)n(C)c2c(C#N)cnn2c1=O [Compound I-29]
62 | ≤ 1 | CCc1c(C(=O)NC)[nH]c2c(C#N)cnn2c1=O [Compound I-49]

— US10035801B2, “Pyrazolo compounds and uses thereof” (CONSTELLATION PHARMACEUTICALS, INC., priority 2013, dated 2018)
